# Assays:
# Format in all cases: in vivo
# [1] = tested on: Bromus sterilis; test: greenhouse post-emergence treatment, BROST; settings: Bromus sterilis, 480 h, BROST, 20 DAT
# Method in brief: (§1)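 Seeds sown per species in loamy sand substrate (about 3.0% humus); some raised separately and transplanted shortly before treatment. Treatments applied in water post-emergence, plants held at 10-25° C. or 20-35° C. by species, then scored after 2 to 4 weeks, where 100 means total kill and 0 no damage.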
# [2] = tested on: Avena fatua; test: greenhouse pre-emergence treatment, AVEFA; settings: Avena fatua, 480 h, 20 DAT, AVEFA, metribuzin WG 70% solo 31.25 gai/ha
# Method in brief: (§2)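 Seeds were sown per species in pots of loamy sand with about 3.0% humus, sprayed with the aqueous spray liquor directly after sowing, watered and hooded until rooted, then kept at 10-25° C. or 20-35° C. for 2 to 4 weeks. Damage was scored 0 (none) to 100 (no emergence/complete destruction).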
# [3] = tested on: Poa annua; test: greenhouse post-emergence treatment, POAAN; settings: Poa annua, 480 h, 20 DAT, POAAN
# Method in brief: (§3)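 Plants in loamy sand (~3.0% humus) were sprayed post-emergence at 3–15 cm height with actives in a water spray liquor made from 10% by weight emulsion concentrates. Plants were kept at 10-25° C. or 20-35° C. by species and rated over 2–4 weeks on a 0–100 scale (100 = complete destruction). Colby's E = X+Y−(X·Y/100) gave the expected additive effect.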
# [4] = tested on: Digitaria sanguinalis; test: greenhouse post-emergence treatment, DIGSA; settings: Digitaria sanguinalis, 480 h, 20 DAT, DIGSA
# Method in brief: as §1
# [5] = tested on: Alopecurus myosuroides; test: greenhouse post-emergence treatment, ALOMY; settings: Alopecurus myosuroides, 480 h, 20 DAT, ALOMY
# Method in brief: as §1
# [6] = tested on: Papaver rhoeas; test: greenhouse post-emergence treatment, PAPRH; settings: Papaver rhoeas, 480 h, PAPRH, 20 DAT
# Method in brief: (§4)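 Seeds sown per species in pots of loamy sand; seedlings either grown in place or transplanted days before treatment. Post-emergence spray of water-based liquor at 3–15 cm height. Injury rated 0–100 over 2 to 4 weeks.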
# [7] = tested on: Brachiaria decumbens; test: greenhouse post-emergence treatment, BRADC; settings: Urochloa decumbens, 480 h, 20 DAT, BRADC
# Method in brief: as §3
# [8] = tested on: Setaria viridis; test: greenhouse post-emergence treatment, SETVI; settings: Setaria viridis, 480 h, SETVI, 20 DAT
# Method in brief: as §1
# [9] = tested on: Matricaria chamomilla; test: greenhouse post-emergence treatment, MATCH; settings: Matricaria chamomilla, 480 h, 20 DAT, MATCH
# Method in brief: as §4
# [10] = tested on: Ambrosia elatior; test: greenhouse pre-emergence treatment, AMBEL; settings: Ambrosia artemisiifolia, 480 h, 20 DAT, AMBEL
# Method in brief: as §2
# [11] = tested on: Ambrosia elatior; test: greenhouse post-emergence treatment, AMBEL; settings: 20 DAT, AMBEL
# Method in brief: as §3
# [12] = tested on: Echinocloa crus-galli; test: greenhouse post-emergence treatment, ECHCG; settings: Echinochloa crus-galli, 480 h, pyridate solo 225 gai/ha, 20 DAT, ECHCG
# Method in brief: as §4
# [13] = metribuzin WG 70% solo 17.5 gai/ha
# [14] = metribuzin WG 70% solo 35 gai/ha
# [15] = solo pyridate (WP 45%) 112.5 gai/ha
# [16] = solo pyridate (WP 45%) 225 gai/ha
# [17] = solo pyridate (WP 45%) 900 gai/ha
# [18] = solo pyridate (WP 45%) 450 gai/ha
compound,measurement,setting,value
CSc1nnc(C(C)(C)C)c(=O)n1N [metribuzin],pest or weed control at 17.5 g/ha,"[1]; solo, WG 70%, 17.5 gai/ha",25%
same,pest or weed control at 35 g/ha,"[1]; solo, WG 70%, 35 gai/ha",55%
same,inhibition at 31.25 g/ha,[2],30%
same,inhibition at 17.5 g/ha,[3]; [13],60%
same,inhibition at 35 g/ha,[3]; [14],70%
same,pest or weed control at 17.5 g/ha,"[3]; solo, WG 70%, 17.5 gai/ha",60%
same,inhibition at 17.5 g/ha,[4]; [13],0%
same,inhibition at 35 g/ha,[4]; [14],35%
same,pest or weed control at 17.5 g/ha,"[4]; solo, WG 70%, 17.5 gai/ha",0%
same,pest or weed control at 35 g/ha,"[4]; solo, WG 70%, 35 gai/ha",35%
same,pest or weed control at 140 g/ha,"[4]; solo, WG 70%, 140 gai/ha",85%
same,inhibition at 17.5 g/ha,[5]; [13],0%
same,inhibition at 35 g/ha,"[5]; metribuzin WG 70% solo 35 gai/ha, read-out: % activity",10%
same,pest or weed control at 17.5 g/ha,"[5]; solo, WG 70%, 17.5 gai/ha",0%
same,pest or weed control at 35 g/ha,"[5]; solo, WG 70%, 35 gai/ha",10%
same,pest or weed control at 17.5 g/ha,"[6]; solo, WG 70%, 17.5 gai/ha",60%
same,inhibition at 17.5 g/ha,[7]; [13],50%
same,pest or weed control at 17.5 g/ha,"[8]; solo, WG 70%, 17.5 gai/ha",30%
same,inhibition at 17.5 g/ha,[9]; [13],0%
same,inhibition at 35 g/ha,[9]; [14],25%
same,pest or weed control at 17.5 g/ha,"[9]; solo, WG 70%, 17.5 gai/ha",0%
same,pest or weed control at 35 g/ha,"[9]; solo, WG 70%, 35 gai/ha",25%
same,"percent weed control (herbicidal activity, 0-100 scale) at 250 g/ha",[10]; metribuzin WG 70% solo 250 gai/ha,60%
same,pest or weed control at 31.25 g/ha,"[10]; solo, WG 70%, 31.25 gai/ha",40%
same,pest or weed control at 62.5 g/ha,"[10]; solo, WG 70%, 62.5 gai/ha",40%
same,pest or weed control at 125 g/ha,"[10]; solo, WG 70%, 125 gai/ha",70%
same,inhibition at 17.5 g/ha,"[11]; Ambrosia artemisiifolia, 480 h, metribuzin WG 70% solo 17.5 gai/ha",0%
same,inhibition at 35 g/ha,"[11]; Ambrosia artemisiifolia, 480 h, metribuzin WG 70% solo 35 gai/ha",0%
same,inhibition at 70 g/ha,"[11]; Ambrosia artemisiifolia, 480 h, metribuzin WG 70% solo 70 gai/ha",0%
same,inhibition at 140 g/ha,"[11]; Ambrosia artemisiifolia, 480 h, metribuzin WG 70% solo 140 gai/ha",70%
same,% activity,"[11]; solo, WG 70%, 17.5 gai/ha",0%
same,% activity,"[11]; solo, WG 70%, 35 gai/ha",0%
same,% activity,"[11]; solo, WG 70%, 70 gai/ha",0%
CCCCCCCCSC(=O)Oc1cc(Cl)nnc1-c1ccccc1 [pyridate],pest or weed control at 112.5 g/ha,[1]; [15],0%
same,pest or weed control at 225 g/ha,[1]; [16],0%
same,pest or weed control at 900 g/ha,[1]; [17],0%
same,pest or weed control at 112.5 g/ha,[3]; [15],0%
same,pest or weed control at 225 g/ha,[3]; [16],0%
same,pest or weed control at 450 g/ha,[3]; [18],0%
same,pest or weed control at 900 g/ha,[5]; [17],20%
same,inhibition at 112.5 g/ha,[5]; pyridate solo 112.5 gai/ha,0%
same,inhibition at 225 g/ha,[5]; pyridate solo 225 gai/ha,0%
same,inhibition at 450 g/ha,[5]; pyridate solo 450 gai/ha,0%
same,inhibition at 900 g/ha,[5]; pyridate solo 900 gai/ha,20%
same,pest or weed control at 112.5 g/ha,[6]; [15],0%
same,pest or weed control at 225 g/ha,[6]; [16],10%
same,pest or weed control at 450 g/ha,[6]; [18],50%
same,pest or weed control at 900 g/ha,[6]; [17],70%
same,inhibition at 112.5 g/ha,[6]; pyridate solo 112.5 gai/ha,0%
same,inhibition at 225 g/ha,[6]; pyridate solo 225 gai/ha,10%
same,inhibition at 450 g/ha,[6]; pyridate solo 450 gai/ha,50%
same,inhibition at 900 g/ha,[6]; pyridate solo 900 gai/ha,70%
same,inhibition at 225 g/ha,[12],30%
same,pest or weed control at 112.5 g/ha,[7]; [15],0%
same,pest or weed control at 225 g/ha,[7]; [16],20%
same,pest or weed control at 450 g/ha,[7]; [18],20%
same,pest or weed control at 900 g/ha,[7]; [17],50%
same,inhibition at 112.5 g/ha,[7]; pyridate solo 112.5 gai/ha,0%
same,inhibition at 225 g/ha,[7]; pyridate solo 225 gai/ha,20%
same,inhibition at 450 g/ha,[7]; pyridate solo 450 gai/ha,20%
same,inhibition at 900 g/ha,[7]; pyridate solo 900 gai/ha,50%
same,pest or weed control at 112.5 g/ha,[8]; [15],15%
same,pest or weed control at 225 g/ha,[8]; [16],25%
same,pest or weed control at 450 g/ha,[8]; [18],65%
same,inhibition at 225 g/ha,[8]; pyridate solo 225 gai/ha,25%
same,inhibition at 450 g/ha,[8]; pyridate solo 450 gai/ha,65%
same,inhibition at 900 g/ha,[8]; pyridate solo 900 gai/ha,80%
same,pest or weed control at 112.5 g/ha,[9]; [15],0%
same,pest or weed control at 225 g/ha,[9]; [16],0%
same,pest or weed control at 450 g/ha,[9]; [18],40%
same,inhibition at 112.5 g/ha,[9]; pyridate solo 112.5 gai/ha,0%
same,inhibition at 225 g/ha,[9]; pyridate solo 225 gai/ha,0%
same,inhibition at 450 g/ha,[9]; pyridate solo 450 gai/ha,40%
same,% activity,[11]; [15],0%
same,% activity,[11]; [16],10%
same,inhibition at 112.5 g/ha,"[11]; Ambrosia artemisiifolia, 480 h, pyridate solo 112.5 gai/ha",0%
same,inhibition at 225 g/ha,"[11]; Ambrosia artemisiifolia, 480 h, pyridate solo 225 gai/ha",10%
same,inhibition at 450 g/ha,"[11]; Ambrosia artemisiifolia, 480 h, pyridate solo 450 gai/ha",85%
